Results on two compounds are retold here after patent publication US20030032651A1 (priority 2001, published 2003).

Structures are written as SMILES.

For data set [1] the following is noted: after parenteral injection; cited from earlier work.
A short description of data set [2]: Rat hindpaw withdrawal latency (HWL) to thermal stimulation (hot-plate test, 52° C.). Format: in vivo. Conditions: Day 6, i.t. every 12 hrs: morphine 8 μg, or rotated with nociceptin 10 nmol every 2 days. Background: In hot-plate and tail-flick tests a longer latency is read as antinociception.
A short description of data set [3]: Rat hindpaw withdrawal latency (HWL) to mechanical stimulation (Randall Selitto Test). It counts as in vivo. Conditions: Day 14, i.t. every 12 hrs, morphine 8 μg rotated with nociceptin 10 nmol every 2 days.
The nature of data set [4]: Development of tolerance to intrathecal analgesia in rat HWL study (thermal and mechanical). The settings on record: drug alone i.t. every 12 hrs. It counts as in vivo.

In the case of `O=C1NCN(c2ccccc2)C12CCN([C@H]1CC[C@@H]3CCCc4cccc1c43)CC2` [RO 64-6198, (1S,3aS)8-(2,3,3a,4,5,6-hexahydro-1H-phenalen-1-yl)-1-phenyl-1,3,8-triaza-spiro[4,5]decan-4-one], in data set [1], the brain penetration result is listed as “high degree of brain penetration”.

As for `CN1CC[C@]23c4c5ccc(O)c4O[C@H]2[C@@H](O)C=C[C@H]3[C@H]1C5` [Morphine, morphine], the “% Changes of HWL to Thermal Stimulation 10 Minutes After Intrathecal Injection, Left” value in data set [2] (left hindpaw) was −1.30 ± 2.36%. In addition, in data set [2] (right hindpaw), the “% Changes of HWL to Thermal Stimulation 10 Minutes After Intrathecal Injection, Right” value came out at 0.51 ± 1.61%. Moreover, the “% Changes of HWL to Mechanical Stimulation 10 Minutes After Intrathecal Injection, Left” value in data set [3] is on record as −0.84 ± 1.61%. For the same compound, in data set [4], the “day by which total/complete tolerance exists” value was at most 6 days.
